Experimental data: patent publication US20040082635A1, “Fused cyclic compounds and medicinal use thereof” (priority 2001, published 2004)
pIC50: −log10 of the molar value. Where a name gives a salt, the structure may show the parent alone. Read-outs that look alike come from different tables or passages of the source.

Target: T1, HCV polymerase (Hepatitis C virus genotype 1b, UniProt P26663)
T1 construct: a region encoding NS5B (591 amino acids; J Virol 1991 Mar, 65(3), 1105-13) was amplified by PCR; 6 His (N); made in house; host or cells: Escherichia coli
T1 sequence (P26663 2420-3010): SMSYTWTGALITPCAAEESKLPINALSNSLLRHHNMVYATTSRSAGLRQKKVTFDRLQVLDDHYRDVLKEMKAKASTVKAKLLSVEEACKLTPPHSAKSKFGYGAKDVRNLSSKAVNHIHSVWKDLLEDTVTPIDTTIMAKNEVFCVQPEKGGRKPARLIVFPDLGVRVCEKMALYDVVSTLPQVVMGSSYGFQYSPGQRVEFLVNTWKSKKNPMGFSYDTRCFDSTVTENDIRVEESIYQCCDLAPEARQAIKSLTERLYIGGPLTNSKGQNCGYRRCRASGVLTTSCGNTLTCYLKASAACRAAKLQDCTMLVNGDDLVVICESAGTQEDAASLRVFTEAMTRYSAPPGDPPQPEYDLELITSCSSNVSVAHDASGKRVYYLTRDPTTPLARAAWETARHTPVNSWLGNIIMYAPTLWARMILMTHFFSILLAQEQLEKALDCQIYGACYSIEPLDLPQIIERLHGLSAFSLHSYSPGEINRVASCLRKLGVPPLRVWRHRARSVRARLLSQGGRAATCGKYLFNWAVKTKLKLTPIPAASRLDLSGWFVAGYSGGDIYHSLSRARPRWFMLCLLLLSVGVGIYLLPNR
Assay: biochemical

[1] = read-out: HCV polymerase inhibitory activity IC50

Structure (SMILES)	pIC50 [1]	pIC50 (HCV polymerase inhibitory activity IC50)
COCc1ccc(-c2ccc(Cl)cc2COc2ccc(-c3nc4cc(C(=O)O)ccc4n3C3CCCCC3)cc2)cc1 [Example 295, 2-{4-[3-chloro-6-(4-methoxymethylphenyl)benzyloxy]phenyl}-1-cyclohexylbenzimidazole-5-carboxylic acid]	7.35	
O=C(O)c1cccc(-c2ccc(Cl)cc2COc2ccc(-c3nc4cc(C(=O)O)ccc4n3C3CCCCC3)cc2)c1 [Example 296, 2-{4-[2-(3-carboxyphenyl)-5-chlorobenzyloxy]phenyl}-1-cyclohexylbenzimidazole-5-carboxylic acid]	7.47	
CSc1ccc(-c2ccc(Cl)cc2)c(COc2ccc(-c3nc4cc(C(=O)O)ccc4n3C3CCCCC3)cc2)c1 [Example 297, 2-{4-[2-(4-chlorophenyl)-5-methylthiobenzyloxy]phenyl}-1-cyclohexylbenzimidazole-5-carboxylic acid]	7.66	
C[S+]([O-])c1ccc(-c2ccc(Cl)cc2)c(COc2ccc(-c3nc4cc(C(=O)O)ccc4n3C3CCCCC3)cc2)c1 (stereo not drawn) [Example 298, 2-{4-[2-(4-chlorophenyl)-5-methylsulfinylbenzyloxy]phenyl}-1-cyclohexylbenzimidazole-5-carboxylic acid]	7.96	
N#Cc1ccc(-c2ccc(Cl)cc2)c(COc2ccc(-c3nc4cc(C(=O)O)ccc4n3C3CCCCC3)cc2)c1 [Example 299, 2-{4-[2-(4-chlorophenyl)-5-cyanobenzyloxy]phenyl}-1-cyclohexyl-benzimidazole-5-carboxylic acid]	7.74	
CN(C)C(=O)c1ccc(C(Oc2ccc(-c3nc4cc(C(=O)O)ccc4n3C3CCCCC3)c(F)c2)c2ccc(C(=O)N(C)C)cc2)cc1 [Example 301]	7.77	
COC(=O)c1ccc2c(c1)nc(-c1ccc(OCc3cc(C(=O)N(C)C)ccc3-c3ccc(Cl)cc3)cc1F)n2C1CCCCC1 [Example 303, methyl 2-{4-[2-(4-chlorophenyl)-5-(dimethylcarbamoyl)benzyloxy]-2-fluorophenyl}-1-cyclohexylbenzimidazole-5-carboxylate]	7.00	
O=C(O)c1ccc(-c2ccc(Cl)cc2)c(COc2ccc(-c3nc4cc(C(=O)O)ccc4n3C3CCCCC3)c(F)c2)c1 [Example 305, 2-{4-[5-carboxy-2-(4-chlorophenyl)benzyloxy]-2-fluorophenyl}-1-cyclohexylbenzimidazole-5-carboxylic acid]	8.00	
COc1ccc(-c2ccc(C(=O)O)cc2)c(COc2ccc(-c3nc4cc(C(=O)O)ccc4n3C3CCCCC3)cc2)c1 [Example 306, 2-{4-[2-(4-carboxyphenyl)-5-methoxybenzyloxy]phenyl}-1-cyclohexylbenzimidazole-5-carboxylic acid]	7.89	
CN(C)C(=O)c1ccc(-c2ccc(C(N)=O)cc2)c(COc2ccc(-c3nc4cc(C(=O)O)ccc4n3C3CCCCC3)cc2)c1 [Example 307, 2-{4-[2-(4-carbamoylphenyl)-5-(dimethylcarbamoyl)benzyloxy]-phenyl}-1-cyclohexylbenzimidazole-5-carboxylic acid]	7.66	
Nc1ccc(-c2ccc(Cl)cc2)c(COc2ccc(-c3nc4cc(C(=O)O)ccc4n3C3CCCCC3)cc2)c1 [Example 308, 2-{4-[5-amino-2-(4-chlorophenyl)benzyloxy]phenyl}-1-cyclohexylbenzimidazole-5-carboxylic acid]	7.64	
O=C(O)c1ccc(C(Oc2ccc(-c3nc4cc(C(=O)O)ccc4n3C3CCCCC3)c(F)c2)c2ccc(C(=O)O)cc2)cc1 [Example 312, 2-{4-[bis(4-carboxyphenyl)methoxy]-2-fluorophenyl}-1-cyclohexylbenzimidazole-5-carboxylic acid]	7.64	
CNC(=O)c1ccc(-c2ccc(Cl)cc2)c(COc2ccc(-c3nc4cc(C(=O)OC)ccc4n3C3CCCCC3)c(F)c2)c1 [Example 314, methyl 2-{4-[2-(4-chlorophenyl)-5-(methylcarbamoyl)benzyloxy]-2-fluorophenyl}-1-cyclohexylbenzimidazole-5-carboxylate]	7.01	
O=C(O)c1ccc2c(c1)nc(-c1ccc(OCc3cc(Cl)ccc3-c3ccncc3)cc1)n2C1CCCCC1 [Example 315, 2-{4-[5-chloro-2-(4-pyridyl)benzyloxy]phenyl}-1-cyclohexylbenzimidazole-5-carboxylic acid hydrochloride]	7.55	
O=C(O)c1ccc2c(c1)nc(-c1ccc(OCc3cc(C(=O)NCc4ccccc4)ccc3-c3ccc(Cl)cc3)cc1)n2C1CCCCC1 [Example 316, 2-{4-[2-(4-chlorophenyl)-5-(benzylcarbamoyl)benzyloxy]phenyl}-1-cyclohexylbenzimidazole-5-carboxylic acid hydrochloride]	7.66	
O=C(O)c1ccc2c(c1)nc(-c1ccc(OCc3cc(C(=O)NCC4CCCCC4)ccc3-c3ccc(Cl)cc3)cc1)n2C1CCCCC1 [Example 317, 2-{4-[2-(4-chlorophenyl)-5-(cyclohexylmethylcarbamoyl)-benzyloxy]phenyl}-1-cyclohexylbenzimidazole-5-carboxylic acid hydrochloride]	7.49	
O=C(O)c1ccc2c(c1)nc(-c1ccc(OCc3cc(C(=O)NCc4ccncc4)ccc3-c3ccc(Cl)cc3)cc1)n2C1CCCCC1 [Example 318, 2-{4-[2-(4-chlorophenyl)-5-(4-pyridylmethylcarbamoyl)-benzyloxy]phenyl}-1-cyclohexylbenzimidazole-5-carboxylic acid dihydrochloride]	7.92	
CN(Cc1ccccc1)C(=O)c1ccc(-c2ccc(Cl)cc2)c(COc2ccc(-c3nc4cc(C(=O)O)ccc4n3C3CCCCC3)cc2)c1 [Example 319, 2-{4-[2-(4-chlorophenyl)-5-(N-benzyl-N-methylcarbamoyl)-benzyloxy]phenyl}-1-cyclohexylbenzimidazole-5-carboxylic acid hydrochloride]	7.52	
CN(C)C(=O)c1ccc(-c2ccncc2)c(COc2ccc(-c3nc4cc(C(=O)O)ccc4n3C3CCCCC3)cc2)c1 [Example 320, 2-{4-[5-dimethylaminocarbonyl-2-(4-pyridyl)benzyloxy]phenyl}-1-cyclohexylbenzimidazole-5-carboxylic acid dihydrochloride]	7.44	
CN1CCN(C(=O)c2ccc(-c3ccc(Cl)cc3)c(COc3ccc(-c4nc5cc(C(=O)O)ccc5n4C4CCCCC4)cc3)c2)CC1 [Example 321, 2-{4-[2-(4-chlorophenyl)-5-(4-methylpiperazin-1-ylcarbonyl)benzyloxy]phenyl}-1-cyclohexylbenzimidazole-5-carboxylic acid dihydrochloride]	7.82	
O=C(O)c1ccc2c(c1)nc(-c1ccc(OCc3cc(C(=O)NCc4cccnc4)ccc3-c3ccc(Cl)cc3)cc1)n2C1CCCCC1 [Example 322, 2-{4-[2-(4-chlorophenyl)-5-{N-(3-pyridylmethyl)carbamoyl}-benzyloxy]phenyl}-1-cyclohexylbenzimidazole-5-carboxylic acid dihydrochloride]	7.80	
O=C(O)c1ccc2c(c1)nc(-c1ccc(OCc3cc(C(=O)NCc4ccccn4)ccc3-c3ccc(Cl)cc3)cc1)n2C1CCCCC1 [Example 323, 2-{4-[2-(4-chlorophenyl)-5-{N-(2-pyridylmethyl)carbamoyl}-benzyloxy]phenyl}-1-cyclohexylbenzimidazole-5-carboxylic acid dihydrochloride]	7.74	
O=C(O)c1ccc2c(c1)nc(-c1ccc(OCc3cc(C(=O)NC4CCCCC4)ccc3-c3ccc(Cl)cc3)cc1)n2C1CCCCC1 [Example 324, 2-{4-[2-(4-chlorophenyl)-5-(cyclohexylcarbamoyl)benzyloxy]-phenyl}-1-cyclohexylbenzimidazole-5-carboxylic acid hydrochloride]	7.57	
O=C(O)c1ccc2c(c1)nc(-c1ccc(OCc3cc(C(=O)NCCc4ccncc4)ccc3-c3ccc(Cl)cc3)cc1)n2C1CCCCC1 [Example 325, 2-{4-[2-(4-chlorophenyl)-5-(2-pyridin-4-ylethylcarbamoyl)-benzyloxy]phenyl}-1-cyclohexylbenzimidazole-5-carboxylic acid dihydrochloride]	7.72	
CN(C)C(=O)c1ccc(C(Oc2ccc(-c3nc4cc(C(=O)O)ccc4n3C3CCCCC3)c(F)c2)c2ccc(F)cc2)cc1 (stereo not drawn) [Example 326, 2-{4-[(4-fluorophenyl){4-(dimethylaminocarbonyl)phenyl}methoxy]-2-fluorophenyl}-1-cyclohexylbenzimidazole-5-carboxylic acid]	7.74	
O=C(O)c1ccc(C(Oc2ccc(-c3nc4cc(C(=O)O)ccc4n3C3CCCCC3)c(F)c2)c2ccc(F)cc2)cc1 (stereo not drawn) [Example 327, 2-{4-[(4-fluorophenyl)(4-carboxyphenyl)methoxy]-2-fluorophenyl}-1-cyclohexylbenzimidazole-5-carboxylic acid]	7.72	
O=C1CCN(C(=O)c2ccc(-c3ccc(Cl)cc3)c(COc3ccc(-c4nc5cc(C(=O)O)ccc5n4C4CCCCC4)cc3)c2)CC1 [Example 328, 2-{4-[2-(4-chlorophenyl)-5-(4-oxopiperidinocarbonyl)-benzyloxy]phenyl}-1-cyclohexylbenzimidazole-5-carboxylic acid hydrochloride]		7.82
O=C(O)c1ccc2c(c1)nc(-c1ccc(OCc3cc(O)ccc3-c3ccc(Cl)cc3)cc1)n2C1CCCCC1 [Example 329, 2-{4-[2-(4-chlorophenyl)-5-hydroxybenzyloxy]phenyl}-1-cyclohexylbenzimidazole-5-carboxylic acid hydrochloride]	7.33	
CC(C)NC(=O)c1ccc(-c2ccc(Cl)cc2)c(COc2ccc(-c3nc4cc(C(=O)O)ccc4n3C3CCCCC3)cc2)c1 [Example 330, 2-{4-[2-(4-chlorophenyl)-5-(isopropylcarbamoyl)benzyloxy]phenyl}-1-cyclohexylbenzimidazole-5-carboxylic acid hydrochloride]	7.96	
CC(C)N(C)C(=O)c1ccc(-c2ccc(Cl)cc2)c(COc2ccc(-c3nc4cc(C(=O)O)ccc4n3C3CCCCC3)cc2)c1 [Example 331, 2-{4-[2-(4-chlorophenyl)-5-(N-isopropyl-N-methylcarbamoyl)-benzyloxy]phenyl}-1-cyclohexylbenzimidazole-5-carboxylic acid hydrochloride]	7.77	
